{"source": "patent US20150223452A1", "about": "“COMPOSITION COMPRISING A PESTICIDAL TERPENE MIXTURE AND A FUNGICIDE” (priority 2012, published 2015)", "key": {"Phytophthora infestans": {"system": "Phytophthora infestans", "format": "in vivo", "conditions": "3 days after inoculation"}, "Venturia inaequalis": {"system": "Venturia inaequalis", "assay": "Venturia test (apples)/preventive"}, "Sphaerotheca fuliginea": {"system": "Sphaerotheca fuliginea", "assay": "Sphaerotheca test (cucumbers)/preventive", "format": "in vivo", "conditions": "7 days after inoculation"}, "[1]": {"system": "green peach aphid (Myzus persicae)", "assay": "Myzus persicae spray test", "format": "in vivo", "conditions": "500 g ai/ha; mortality, Chinese cabbage leaf-disks", "protocol": "(§1) Solvent: 78.0 parts by weight acetone • 1.5 parts by weight dimethylformamide\n(§2) Emulsifier: 0.5 parts by weight alkylarylpolyglycolether\n(§3) To produce a suitable preparation of active compound, 1 part by weight of active compound is mixed with the stated amount of solvent and emulsifier, and the concentrate is diluted with emulsifier-containing water to the desired concentration.\nChinese cabbage (Brassica pekinensis) leaf-disks infected with all instars of the green peach aphid (Myzus persicae) are sprayed with a preparation of the active ingredient of the desired concentration.\nAfter the specified period of time, mortality in % is determined. 100% means that all aphids have been killed; 0% means that none of the aphids have been killed. The mortality values determined thus are recalculated using the Colby-formula (see above)."}, "Botrytis cinerea": {"system": "Botrytis cinerea", "assay": "Botrytis test (beans)/preventive", "conditions": "10 ppm a.i.; size of lesions 2 days after inoculation"}, "[2]": {"system": "two spotted spidermite (Tetranychus urticae)", "assay": "Tetranychus urticae spray test, OP-resistant", "format": "in vivo", "conditions": "500 g ai/ha; mortality, French beans", "protocol": "as §1, §2, §3\nFrench beans (Phaseolus vulgaris) which are heavily infested with all stages of the two spotted spidermite (Tetranychus urticae), are sprayed with a preparation of the active ingredient of the desired concentration.\nAfter the specified period of time, mortality in % is determined. 100% means that all spider mites have been killed and 0% means that none of the spider mites have been killed. The mortality values determined thus are recalculated using the Colby-formula (see sheet 1)."}}, "note": "Read-outs that look alike come from different tables or passages of the source.", "data": [{"molecule": "CO/C=C(/C(=O)OC)c1ccccc1Oc1cc(Oc2ccccc2C#N)ncn1", "note": "[Azoxystrobin (F107), azoxystrobin]", "values": [{"measurement": "Efficacy in % found", "setting": "Phytophthora infestans; 0.5 ppm a.i.", "value": 30, "unit": "%"}]}, {"molecule": "O=C(NCCc1ncc(C(F)(F)F)cc1Cl)c1ccccc1C(F)(F)F", "note": "[F70 fluopyram, fluopyram]", "values": [{"measurement": "Efficacy in % found", "setting": "Venturia inaequalis; 4 ppm a.i., first series", "value": 4, "unit": "%"}]}, {"molecule": "Cn1cc(C(=O)Nc2ccccc2-c2cc(F)c(F)c(F)c2)c(C(F)F)n1", "note": "[F72 fluxapyroxad, fluxapyroxad]", "values": [{"measurement": "Efficacy in % found", "setting": "Sphaerotheca fuliginea; 1 ppm a.i.", "value": 29, "unit": "%"}, {"measurement": "Efficacy in % found", "setting": "Venturia inaequalis; 0.5 ppm a.i., first series", "value": 43, "unit": "%"}]}, {"molecule": "Cc1nn(C)c(F)c1C(=O)Nc1ccccc1C(C)CC(C)C", "note": "(stereo not drawn) [F84 penflufen, penflufen]", "values": [{"measurement": "Efficacy in % found", "setting": "Venturia inaequalis; 2 ppm a.i., first series", "value": 0, "unit": "%"}]}, {"molecule": "CSC1=N[C@@](C)(c2ccccc2)C(=O)N1Nc1ccccc1", "note": "[Fenamidone (F114), fenamidone]", "values": [{"measurement": "Efficacy in % found", "setting": "Sphaerotheca fuliginea; 50 ppm a.i.", "value": 20, "unit": "%"}]}, {"molecule": "N#Cc1c[nH]cc1-c1cccc2c1OC(F)(F)O2", "note": "[Fludioxonil (F248), fludioxonil]", "values": [{"measurement": "Efficacy in % found", "setting": "Sphaerotheca fuliginea; 50 ppm a.i.", "value": 62, "unit": "%"}]}, {"molecule": "CC(C)Oc1cccc(NC(=O)c2ccccc2C(F)(F)F)c1", "note": "[Flutolanil (F71), flutolanil]", "values": [{"measurement": "Efficacy in % found", "setting": "Venturia inaequalis; 100 ppm a.i., second series", "value": 4, "unit": "%"}]}, {"molecule": "COCC(=O)N(c1c(C)cccc1C)C(C)C(=O)OC", "note": "(stereo not drawn) [Metalaxyl (F241), metalaxyl]", "values": [{"measurement": "Efficacy in % found", "setting": "Phytophthora infestans; 5 ppm a.i.", "value": 5, "unit": "%"}]}, {"molecule": "COC(=O)N(OC)c1ccccc1COc1ccn(-c2ccc(Cl)cc2)n1", "note": "[Pyraclostrobin (F121), pyraclostrobin]", "values": [{"measurement": "Efficacy in % after 6 d", "setting": "[1]", "value": 70, "unit": "%"}]}, {"molecule": "CCCN(CC)CC1COC2(CCC(C(C)(C)C)CC2)O1", "note": "(stereo not drawn) [Spiroxamine (F46), spiroxamine]", "values": [{"measurement": "Efficacy in % found", "setting": "Sphaerotheca fuliginea; 50 ppm a.i.", "value": 19, "unit": "%"}]}, {"molecule": "fenhexamid [Fenhexamid (F16)]", "values": [{"measurement": "Efficacy in % found", "setting": "Botrytis cinerea", "value": 880, "unit": "%"}]}, {"molecule": "fosetyl-aluminium [Fosetyl-Al (F281)]", "values": [{"measurement": "Efficacy in % after 6 d", "setting": "[2]", "value": 70, "unit": "%"}]}, {"molecule": "mancozeb [Mancozeb (F174)]", "values": [{"measurement": "Efficacy in % found", "setting": "Phytophthora infestans; 20 ppm a.i.", "value": 45, "unit": "%"}]}, {"molecule": "metalaxyl-M (mefenoxam) [Mefenoxam (F242)]", "values": [{"measurement": "Efficacy in % found", "setting": "Phytophthora infestans; 5 ppm a.i.", "value": 3, "unit": "%"}]}]}
